Laboratory results reported in article PMC7265341, “Quantifying CDK inhibitor selectivity in live cells” (Nature Communications, 2020).
Like-named read-outs stand apart in the source and are kept apart here.

What was measured:
[1] = molecular target: CDK13/Cyclin K (Homo sapiens, UniProt Q14004); experiment: NanoBRET live-cell target engagement, CDK13-NanoLuc/Cyclin K in HEK-293; format: binding; settings: 10µM; independent experiment 2; read-out: CDK13/K Inhibition at 10µM (%)
[2] = molecular target: CDK7 (Homo sapiens, UniProt P50613); experiment: NanoBRET live-cell target engagement, NanoLuc-CDK7 in HEK-293; format: binding; settings: for inhibition at 10 µM: read-out: CDK7 Inhibition at 10µM (%); for IC50: read-out: CDK7 IC50
[3] = molecular target: CDK10/Cyclin L2 (Homo sapiens, UniProt Q15131); experiment: NanoBRET live-cell target engagement, CDK10-NanoLuc/Cyclin L2 in HEK-293; settings: for inhibition at 10 µM: read-out: CDK10/L2 Inhibition at 10µM (%), 10µM
[4] = molecular target: CDK8/Cyclin C (Homo sapiens, UniProt P49336); experiment: NanoBRET live-cell target engagement, NanoLuc-CDK8/Cyclin C in HEK-293; format: binding; settings: 10µM, read-out: CDK8/C Inhibition at 10µM (%)
[5] = molecular target: CDK4/Cyclin D1 (Homo sapiens, UniProt P11802); experiment: NanoBRET live-cell target engagement, NanoLuc-CDK4/Cyclin D1 in HEK-293; format: binding; settings: for inhibition at 10 µM: read-out: CDK4/D1 Inhibition at 10µM (%)
[6] = molecular target: CDK11B/Cyclin L2 (Homo sapiens, UniProt P21127); experiment: NanoBRET live-cell target engagement, CDK11B-NanoLuc/Cyclin L2 in HEK-293; format: binding; settings: for inhibition at 10 µM: read-out: CDK11b/L2 Inhibition at 10µM (%); for IC50: read-out: CDK11b/L2 IC50
[7] = molecular target: CDK18/Cyclin Y (Homo sapiens, UniProt Q07002); experiment: NanoBRET live-cell target engagement, CDK18-NanoLuc/Cyclin Y in HEK-293; format: binding; settings: for inhibition at 10 µM: read-out: CDK18/Y Inhibition at 10µM (%); for IC50: read-out: CDK18/Y IC50
[8] = molecular target: CDK9/Cyclin K (Homo sapiens, UniProt P50750); experiment: NanoBRET live-cell target engagement, NanoLuc-CDK9/Cyclin K in HEK-293; format: binding; settings: 10µM, read-out: CDK9/K Inhibition at 10µM (%)
[9] = molecular target: CDK19/Cyclin C (Homo sapiens, UniProt Q9BWU1); experiment: NanoBRET live-cell target engagement, NanoLuc-CDK19/Cyclin C in HEK-293; settings: read-out: CDK19/C Inhibition at 10µM (%), 10µM
[10] = molecular target: CDK15/Cyclin Y (Homo sapiens, UniProt Q96Q40); experiment: NanoBRET live-cell target engagement, NanoLuc-CDK15/Cyclin Y in HEK-293; format: binding; settings: for inhibition at 10 µM: read-out: CDK15/Y Inhibition at 10µM (%); for IC50: read-out: CDK15/Y IC50
Sequence of CDK15/Cyclin Y (Q96Q40 whole entry): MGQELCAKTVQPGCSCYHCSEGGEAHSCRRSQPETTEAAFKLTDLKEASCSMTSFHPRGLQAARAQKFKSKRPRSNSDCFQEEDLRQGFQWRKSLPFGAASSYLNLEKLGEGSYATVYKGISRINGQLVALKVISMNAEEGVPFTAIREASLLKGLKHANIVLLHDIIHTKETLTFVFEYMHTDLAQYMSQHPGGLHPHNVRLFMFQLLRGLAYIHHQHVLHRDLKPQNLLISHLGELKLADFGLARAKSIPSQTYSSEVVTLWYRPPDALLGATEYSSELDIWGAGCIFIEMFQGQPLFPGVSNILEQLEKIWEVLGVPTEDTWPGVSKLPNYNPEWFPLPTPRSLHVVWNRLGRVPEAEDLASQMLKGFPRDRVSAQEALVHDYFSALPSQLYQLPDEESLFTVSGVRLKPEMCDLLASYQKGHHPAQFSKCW
Sequence of CDK15/Cyclin Y (Q8ND76 whole entry partner): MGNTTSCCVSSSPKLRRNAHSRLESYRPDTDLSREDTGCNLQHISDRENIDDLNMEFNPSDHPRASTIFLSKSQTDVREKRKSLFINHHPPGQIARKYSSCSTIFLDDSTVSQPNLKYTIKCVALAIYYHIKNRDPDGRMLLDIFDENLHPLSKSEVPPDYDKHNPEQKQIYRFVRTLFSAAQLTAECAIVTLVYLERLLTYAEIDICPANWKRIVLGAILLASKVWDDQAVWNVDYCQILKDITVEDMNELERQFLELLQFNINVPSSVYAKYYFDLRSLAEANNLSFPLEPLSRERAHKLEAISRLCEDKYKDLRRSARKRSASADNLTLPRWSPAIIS

Sequence of CDK7 (P50613 whole entry): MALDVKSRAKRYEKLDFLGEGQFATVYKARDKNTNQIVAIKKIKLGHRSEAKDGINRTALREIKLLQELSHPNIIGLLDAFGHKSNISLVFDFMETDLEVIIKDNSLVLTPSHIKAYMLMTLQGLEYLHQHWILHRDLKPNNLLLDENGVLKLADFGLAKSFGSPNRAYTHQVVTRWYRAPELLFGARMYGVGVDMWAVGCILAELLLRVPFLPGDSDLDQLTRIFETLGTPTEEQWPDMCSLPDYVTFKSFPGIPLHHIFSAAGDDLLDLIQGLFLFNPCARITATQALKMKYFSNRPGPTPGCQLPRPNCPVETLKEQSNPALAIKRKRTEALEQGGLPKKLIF
Sequence of CDK8/Cyclin C (P49336 whole entry): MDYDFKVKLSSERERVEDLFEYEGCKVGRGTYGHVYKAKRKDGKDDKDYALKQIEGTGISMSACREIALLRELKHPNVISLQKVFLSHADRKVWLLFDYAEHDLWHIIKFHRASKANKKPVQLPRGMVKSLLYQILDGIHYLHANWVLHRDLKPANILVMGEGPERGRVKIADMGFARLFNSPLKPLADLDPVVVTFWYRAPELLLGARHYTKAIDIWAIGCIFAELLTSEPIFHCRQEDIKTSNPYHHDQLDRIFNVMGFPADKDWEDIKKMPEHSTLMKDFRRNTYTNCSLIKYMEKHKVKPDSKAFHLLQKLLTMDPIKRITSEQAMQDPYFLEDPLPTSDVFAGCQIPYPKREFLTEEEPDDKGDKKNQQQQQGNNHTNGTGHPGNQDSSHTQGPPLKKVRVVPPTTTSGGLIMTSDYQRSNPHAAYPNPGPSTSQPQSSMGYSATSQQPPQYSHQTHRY
Sequence of CDK8/Cyclin C (P24863 whole entry partner): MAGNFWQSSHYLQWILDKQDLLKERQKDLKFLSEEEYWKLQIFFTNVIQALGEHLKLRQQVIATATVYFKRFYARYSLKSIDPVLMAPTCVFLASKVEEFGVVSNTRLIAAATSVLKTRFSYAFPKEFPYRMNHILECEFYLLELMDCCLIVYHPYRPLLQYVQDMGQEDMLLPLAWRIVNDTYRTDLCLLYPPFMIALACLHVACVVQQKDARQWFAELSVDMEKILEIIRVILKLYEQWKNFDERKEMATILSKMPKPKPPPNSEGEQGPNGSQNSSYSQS
Sequence of CDK4/Cyclin D1 (P11802 whole entry): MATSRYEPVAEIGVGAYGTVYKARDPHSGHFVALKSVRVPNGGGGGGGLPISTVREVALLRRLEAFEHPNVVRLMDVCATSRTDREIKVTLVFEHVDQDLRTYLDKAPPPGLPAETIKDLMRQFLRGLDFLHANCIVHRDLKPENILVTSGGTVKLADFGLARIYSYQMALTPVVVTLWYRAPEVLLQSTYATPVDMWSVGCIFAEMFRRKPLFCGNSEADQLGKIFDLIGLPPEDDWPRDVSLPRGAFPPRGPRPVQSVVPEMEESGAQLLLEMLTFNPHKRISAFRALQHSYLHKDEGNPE
Sequence of CDK4/Cyclin D1 (P24385 whole entry partner): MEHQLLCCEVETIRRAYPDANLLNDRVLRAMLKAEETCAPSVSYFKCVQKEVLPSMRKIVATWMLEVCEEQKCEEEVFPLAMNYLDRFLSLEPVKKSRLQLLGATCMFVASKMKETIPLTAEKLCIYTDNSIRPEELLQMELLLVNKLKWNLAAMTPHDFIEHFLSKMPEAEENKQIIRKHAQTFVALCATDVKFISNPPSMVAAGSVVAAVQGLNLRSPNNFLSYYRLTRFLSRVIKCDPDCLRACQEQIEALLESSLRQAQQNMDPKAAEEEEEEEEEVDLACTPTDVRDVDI
Sequence of CDK10/Cyclin L2 (Q15131 whole entry): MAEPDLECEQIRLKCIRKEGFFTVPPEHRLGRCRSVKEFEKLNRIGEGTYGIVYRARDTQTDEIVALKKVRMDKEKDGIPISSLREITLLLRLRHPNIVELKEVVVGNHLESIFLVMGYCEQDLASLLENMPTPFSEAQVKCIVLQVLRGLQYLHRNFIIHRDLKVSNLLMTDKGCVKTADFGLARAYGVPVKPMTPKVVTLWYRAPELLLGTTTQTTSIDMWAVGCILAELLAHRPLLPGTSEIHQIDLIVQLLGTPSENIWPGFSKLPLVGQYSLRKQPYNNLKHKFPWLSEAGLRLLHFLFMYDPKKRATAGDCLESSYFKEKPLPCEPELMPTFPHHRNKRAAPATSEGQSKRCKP
Sequence of CDK11B/Cyclin L2 (P21127 1-782 isoform P21127-2): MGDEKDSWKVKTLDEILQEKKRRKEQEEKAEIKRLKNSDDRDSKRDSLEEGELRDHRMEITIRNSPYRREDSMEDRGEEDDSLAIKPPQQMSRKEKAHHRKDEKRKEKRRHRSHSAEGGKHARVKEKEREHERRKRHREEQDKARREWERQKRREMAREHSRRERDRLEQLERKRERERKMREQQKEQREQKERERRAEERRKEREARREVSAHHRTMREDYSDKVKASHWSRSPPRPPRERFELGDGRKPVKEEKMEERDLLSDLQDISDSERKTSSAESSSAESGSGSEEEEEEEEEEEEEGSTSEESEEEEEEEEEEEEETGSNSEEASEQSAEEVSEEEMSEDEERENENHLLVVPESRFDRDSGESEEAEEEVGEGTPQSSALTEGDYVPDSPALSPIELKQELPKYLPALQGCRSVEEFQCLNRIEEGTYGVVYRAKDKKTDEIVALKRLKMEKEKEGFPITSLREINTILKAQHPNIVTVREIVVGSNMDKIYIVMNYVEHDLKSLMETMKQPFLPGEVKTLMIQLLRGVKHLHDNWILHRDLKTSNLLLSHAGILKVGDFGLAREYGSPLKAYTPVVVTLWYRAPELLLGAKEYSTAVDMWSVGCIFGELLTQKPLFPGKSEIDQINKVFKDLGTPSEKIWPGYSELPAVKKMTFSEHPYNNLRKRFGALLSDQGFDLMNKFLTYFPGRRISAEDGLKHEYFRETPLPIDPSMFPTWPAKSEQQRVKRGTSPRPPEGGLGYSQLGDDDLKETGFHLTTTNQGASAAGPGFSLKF
Sequence of CDK19/Cyclin C (Q9BWU1 whole entry): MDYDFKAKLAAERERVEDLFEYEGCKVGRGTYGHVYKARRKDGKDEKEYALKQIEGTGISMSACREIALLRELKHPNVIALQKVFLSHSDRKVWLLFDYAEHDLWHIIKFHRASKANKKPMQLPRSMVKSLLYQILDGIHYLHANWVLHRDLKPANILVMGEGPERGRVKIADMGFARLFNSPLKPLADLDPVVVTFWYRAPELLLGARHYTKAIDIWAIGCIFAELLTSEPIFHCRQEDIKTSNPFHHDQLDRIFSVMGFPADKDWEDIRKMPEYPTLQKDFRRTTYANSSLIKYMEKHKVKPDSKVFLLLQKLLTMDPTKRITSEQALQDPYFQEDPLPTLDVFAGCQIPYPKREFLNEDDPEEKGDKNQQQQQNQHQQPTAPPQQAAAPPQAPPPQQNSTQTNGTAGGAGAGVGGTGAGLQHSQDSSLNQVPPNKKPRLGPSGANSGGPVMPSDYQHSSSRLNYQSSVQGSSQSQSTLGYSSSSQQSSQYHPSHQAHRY
Sequence of CDK19/Cyclin C (P24863 whole entry partner): as the sequence (P24863 whole entry partner) above
Sequence of CDK18/Cyclin Y (Q07002 whole entry): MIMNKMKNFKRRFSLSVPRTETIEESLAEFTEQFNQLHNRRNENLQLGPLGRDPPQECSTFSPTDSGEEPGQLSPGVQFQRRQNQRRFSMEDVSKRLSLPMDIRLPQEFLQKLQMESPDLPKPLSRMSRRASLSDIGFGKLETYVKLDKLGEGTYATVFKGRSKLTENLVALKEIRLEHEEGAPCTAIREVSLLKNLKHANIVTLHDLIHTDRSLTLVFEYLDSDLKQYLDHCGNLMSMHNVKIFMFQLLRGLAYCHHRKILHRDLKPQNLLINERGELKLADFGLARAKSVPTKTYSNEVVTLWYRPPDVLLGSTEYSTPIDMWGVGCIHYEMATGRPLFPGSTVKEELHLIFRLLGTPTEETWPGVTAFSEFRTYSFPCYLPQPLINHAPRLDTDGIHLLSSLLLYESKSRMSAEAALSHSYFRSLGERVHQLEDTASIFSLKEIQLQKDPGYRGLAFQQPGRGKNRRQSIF
Sequence of CDK18/Cyclin Y (Q8ND76 whole entry partner): as the sequence (Q8ND76 whole entry partner) above

inhibition at 10 µM [1]: 79.6%
inhibition at 10 µM ([2]; average of experiments): 96.4%
inhibition at 10 µM ([2]; independent experiment 1): 97.5%
inhibition at 10 µM ([2]; independent experiment 2): 95.3%
IC50 ([2]; average (± SEM where n=3)): 10 nM
IC50 ([2]; independent experiment 1): 11 nM
IC50 ([2]; independent experiment 2): 8.8 nM
IC50 ([3]; CDK10/L2 IC50 (nM), average (± SEM where n=3)): 520 nM
IC50 ([3]; CDK10/L2 IC50 (nM), independent experiment 1): 530 nM
IC50 ([3]; CDK10/L2 IC50 (nM), independent experiment 2): 520 nM
IC50 ([3]; IC50 for CDK/cyclin complexes, CDK10/L2, live HEK-293, 2 h, mean ± S.E.M. (n=3) or mean (n=2)): 520 nM
inhibition at 10 µM ([3]; average of experiments): 88%
inhibition at 10 µM ([3]; independent experiment 1): 81.7%
inhibition at 10 µM ([3]; independent experiment 2): 94.4%
inhibition at 10 µM ([4]; average of experiments): 72.3%
inhibition at 10 µM ([4]; independent experiment 1): 57.3%
inhibition at 10 µM ([4]; independent experiment 2): 87.3%
inhibition at 10 µM ([5]; average of experiments): 99.8%
inhibition at 10 µM ([5]; independent experiment 1): 100%
inhibition at 10 µM ([5]; independent experiment 2): 99.2%
IC50 ([5]; average (± SEM where n=3), read-out: CDK4/D1 IC50): 140 nM
IC50 ([5]; independent experiment 1, read-out: CDK4/D1 IC50): 140 nM
IC50 ([5]; independent experiment 2, read-out: CDK4/D1 IC50): 150 nM
IC50 ([5]; live HEK-293, 2 h, mean ± S.E.M. (n=3) or mean (n=2), read-out: IC50 for CDK/cyclin complexes, CDK4/D1): 140 nM
inhibition at 10 µM ([6]; average of experiments): 94.9%
inhibition at 10 µM ([6]; independent experiment 1): 95.5%
inhibition at 10 µM ([6]; independent experiment 2): 94.4%
IC50 ([6]; average (± SEM where n=3)): 51 nM
IC50 ([6]; independent experiment 1): 49 nM
IC50 ([6]; independent experiment 2): 54 nM
inhibition at 10 µM ([7]; average of experiments): 101%
inhibition at 10 µM ([7]; independent experiment 1): 98.4%
inhibition at 10 µM ([7]; independent experiment 2): 103%
IC50 ([7]; average (± SEM where n=3)): 82 nM
IC50 ([7]; independent experiment 1): 99 nM
IC50 ([7]; independent experiment 2): 65 nM
inhibition at 10 µM ([8]; average of experiments): 99.7%
inhibition at 10 µM ([8]; independent experiment 1): 100%
inhibition at 10 µM ([8]; independent experiment 2): 99.2%
inhibition at 10 µM ([9]; average of experiments): 74.8%
inhibition at 10 µM ([9]; independent experiment 1): 62.1%
inhibition at 10 µM ([9]; independent experiment 2): 87.4%
inhibition at 10 µM ([10]; average of experiments): 98.1%
inhibition at 10 µM ([10]; independent experiment 1): 97.4%
inhibition at 10 µM ([10]; independent experiment 2): 98.7%
IC50 ([10]; average (± SEM where n=3)): 58 nM
IC50 ([10]; independent experiment 1): 55 nM
IC50 ([10]; independent experiment 2): 61 nM
SMILES: CN1C/C=C/CCOc2cccc(c2)-c2ccnc(n2)Nc2cccc(c2)C1 [SB1317]
